Test [1] relates to neurons from hippocampi of E18 rat embryos. Kind of test: Neurite growth length (% NTL) in cultured E18 rat hippocampal neurons, 9-point dose response, 48 hours. The test is classed as cell-based. As to conditions: Rattus norvegicus, Neuron, 48 h; for activity at 0.078 µM: 78 nM; for activity at 0.156 µM: 156 nM; for activity at 0.312 µM: 312 nM; for activity at 0.625 µM: 625 nM. The method, then:
PRE-COATING CULTURE PLATES: On the day before the experiment, 96-well plates were pre-coated by plating 50 μl of Poly-D-lysine solution (PDL, 0.5 mg/mL) in each well. The next morning, the plates were washed four or five times with HBSS or PBS (150 μl/rinse), then left in buffer until cell plating
PREPARING THE CELLS: A timed pregnant rat carrying E18 embryos was euthanized using an IACUC approved method. In a laminar flow hood, the embryos were removed and placed in a petri dish containing Hank's Balanced Salt Solution (HBSS) with 20 mM HEPES, pH 7.3. Pup brains were dissected (see Meberg et al., 2003) and hippocampi were collected in 15 mL a conical tube containing Hibernate E with SM1 (2% v/v).
Dissociation media was prepared by combining 4.5 mL of Hibernate E (without SM1) with 0.5 mL of trypsin and 100 μl of DNAse solution. The medium over the hippocampi was carefully removed and replaced with dissociation solution, then incubated at 37° C. for 15-20 minutes, occasionally swirling the tube.
Using flame polished cotton plugged Pasteur pipettes, the dissociation media was removed, and then 5 mL of Hibernate E containing SM1 were added. The tube was swirled to thoroughly wash the tissue. The tissue was allowed to settle to the bottom of the tube, and the rinse solution was carefully removed. This step was repeated 5 times to dilute out trypsin and DNAse and remove any debris from lysed cells.
The final rinse media was removed from the tube and 1 pipette-full (1-2 mL) of Hibernate E with SM1 was added. Using the flame-polished Pasteur pipette (pre-wetted with rinse media), the tube was triturated until all cells had dissociated and no visible chunks of tissue remained. Fewer than ten triturations were typically performed. The volume was adjusted to 8-12 mL using Hibernate E containing SM1, the well was mixed and cell concentration was determined.
PLATING: The cells were diluted in culture media (NbActiv4 Cell-culture media) to a final concentration of 10,000 cells/mL. The HBSS was aspirated from PDL coated plates, and 150 μL of cell solution was loaded in the middle 48 wells at 1500 cells per well. Water was loaded in the outer wells to decrease evaporation from edge wells. Cells were allowed to adhere for 2 hours in tissue culture incubator prior to treatment.
TREATMENT: Compounds were diluted to various concentrations to provide 9 dose response concentrations of 20 μM, 10 μM, 5, μM, 2.5 μM, 1.25 μM, 0.625 μM, 0.3125 μM, 0.15625 μM, and 0.078125 μM. The plates were cultured for 48 hours, exposed to the compound at the various dose response concentrations.
FIXING THE CULTURES: The culture medium was removed from the plates and immediately replaced with 100-200 μl of warm (37° C.) 4% paraformaldehyde (PFA) solution in phosphate-buffered saline (PBS). The cells were fixed for 15-20 minutes at room temperature, and then rinsed with PBS (200 μl/well×3).
STAINING AND IMAGING: The PBS was removed and replaced with 100 μl of blocking/permeabilization buffer (PBS, 0.2% fish gelatin, 0.03% Triton X-100, 0.02% NaN3), then incubated overnight at 4° C. To this was added 100 μl of primary antibody solution (mouse anti-Beta III tubulin in blocking buffer) and incubate overnight at 4° C. The wells were rinsed with PBS (200 μl×3), which was then removed and replaced with 100 μl of secondary antibody solution (Goat anti-mouse Alexa 488, 10 μg/ml Hoechst 33342, 0.2% fish gelatin, 0.02% azide, in PBS). The plate was shaken gently on a rotating shaker for 2 hours, then rinsed with PBS (200 μl×5).
The plate was imaged using a Cellomics ArrayScan VTI in 2 different channels for nuclear staining (Hoechst) and cell body/neurite staining (βIII-tubulin). Typically, nine fields per well were imaged with a 5× objective and automatically traced by the Neuronal Profiling Bioapplication. To get reproducible results, at least 200-300 valid neurons were measured per condition. […]

A further test has as its system Primary Neurons. Kind of test: HCS neurite outgrowth assay (High Content Screening with Primary Neurons). The test is classed as cell-based. As to conditions: Primary neuron.

Take `O=C(N[C@@H]1CNC[C@H]1NC(=O)c1ccc(C(=O)c2ccccc2O)c(Cl)c1)c1ccncc1` [Example A67, N-[(3R,4R)-4-[3-chloro-4-(2-hydroxybenzoyl)benzamido]pyrrolidin-3-yl]pyridine-4-carboxamide]: in test [1], the activity at 0.078 µM turned out to be 94.2%, the activity at 0.156 µM came out at 97.9%, the activity at 0.312 µM came out at 104% and the activity at 0.625 µM came to 104%. Also, in test [1], the activity at 1.25 µM was 112%, the activity at 2.5 µM is 106%, the activity at 5 µM amounted to 108% and the activity at 10 µM worked out at 120%. The activity at 20 µM in test [1] stood at 128%. For the same compound, the concentration for a half-maximal effect (EC50) (as a rule, the midpoint of the concentration-response curve) in the test on Primary Neurons is over 20 µM.
Regarding `COc1ccc(OC)c(C(=O)c2ccc(C(=O)NCCNC(=O)c3ccncc3)cc2)c1F` [Example A26, 4-(2-fluoro-3,6-dimethoxybenzoyl)-N-{2-[(pyridin-4-yl)formamido]ethyl}benzamide], in test [1], the activity at 0.078 µM came out at 93.3%, the activity at 0.156 µM worked out at 99.2%, the activity at 0.312 µM worked out at 94.2% and the activity at 0.625 µM was 99.3%. For the same compound, in test [1], the activity at 1.25 µM worked out at 93.5%, the activity at 2.5 µM worked out at 99.9%, the activity at 5 µM came to 102% and the activity at 10 µM worked out at 97.8%. In addition, the activity at 20 µM in test [1] was determined as 117%. Also, the half-maximal effective concentration (EC50) with Primary Neurons was over 20 µM.
With `COc1ccc(O)c(C(=O)c2ccc(C(=O)N3CCN(C(=O)c4ccncc4)CC3)cc2)c1F` [Example A9, 3-fluoro-4-methoxy-2-{4-[4-(pyridine-4-carbonyl)piperazine-1-carbonyl]benzoyl}phenol], in test [1], the activity at 0.078 µM was determined as 94.5%, the activity at 0.156 µM was determined as 91.5%, the activity at 0.312 µM is 90.7% and the activity at 0.625 µM came to 96.6%. In test [1], the activity at 1.25 µM is 88%, the activity at 2.5 µM was determined as 98.9%, the activity at 5 µM came out at 98.3% and the activity at 10 µM came out at 89.6%. Also, the activity at 20 µM in test [1] came to 89.1%. In addition, in the test on Primary Neurons, the EC50 stood at 4.92 µM.
Regarding `COc1ccc(O)c(C(=O)c2ccc(C(=O)N[C@@H]3CCC[C@H]3NC(=O)c3ccncc3)cc2)c1F` [Example A18, N-[(1R,2R)-2-[4-(2-fluoro-6-hydroxy-3-methoxybenzoyl)benzamido]cyclopentyl] pyridine-4-carboxamide], in test [1], the activity at 0.078 µM stood at 113%, the activity at 0.156 µM amounted to 115%, the activity at 0.312 µM was 119% and the activity at 0.625 µM was determined as 120%. In test [1], the activity at 1.25 µM came out at 121%, the activity at 2.5 µM is 133%, the activity at 5 µM was 130% and the activity at 10 µM was found to be 131%. For the same compound, the activity at 20 µM in test [1] amounted to 140%. This compound yielded an EC50 in the test on Primary Neurons of 6.61 µM.
For `Cc1ccc(C(=O)c2ccc(C(=O)N[C@@H]3CNC[C@H]3NC(=O)c3ccncc3)cc2)c(O)c1` [Example A81, N-[(3R,4R)-4-[4-(2-hydroxy-4-methylbenzoyl)benzamido]pyrrolidin-3-yl]pyridine-4-carboxamide], in test [1], the activity at 0.078 µM worked out at 124%, the activity at 0.156 µM was found to be 120%, the activity at 0.312 µM turned out to be 127% and the activity at 0.625 µM is 128%. Besides, in test [1], the activity at 1.25 µM stood at 128%, the activity at 2.5 µM was 125%, the activity at 5 µM came out at 130% and the activity at 10 µM came to 113%. Besides, in test [1], the activity at 20 µM came to 116%. In addition, the EC50 in the test with Primary Neurons was found to be 5.22 µM.
As for `O=C(N[C@@H]1CCCC[C@H]1NC(=O)c1ccc(C(=O)c2ccccc2)cc1)c1ccncc1` [Example A19, N-[(1R,2R)-2-(4-benzoylbenzamido)cyclohexyl]pyridine-4-carboxamide], in test [1], the activity at 0.078 µM came out at 90.1%, the activity at 0.156 µM amounted to 93.7%, the activity at 0.312 µM came to 68.7% and the activity at 0.625 µM worked out at 75%. Moreover, in test [1], the activity at 1.25 µM was 75.7%, the activity at 2.5 µM was determined as 78.5%, the activity at 5 µM stood at 79.4% and the activity at 10 µM was found to be 87.4%. Also, in test [1], the activity at 20 µM was 91.2%. The same compound registered an EC50 in the test with Primary Neurons of 2.24 µM.

The record behind these values is patent US11926613B2, “Kinase inhibitors for the treatment of central and peripheral nervous system disorders” (UNIVERSITY OF MIAMI, priority 2017, dated 2024).
